The values that follow come from PMC4076079, “Selective inhibitors of a PAF biosynthetic enzyme lysophosphatidylcholine acyltransferase 2” (Journal of Lipid Research, 2014).

Several values for one entry are separate records, joined by “and”; a condition that tells them apart may be missing. Equal values may be shown once.

What all share (assay type): biochemical
The target in experiment [1] is T1, hLPCAT1 (Homo sapiens, UniProt Q8NF37).
T1 construct: expressed in transfected cells
T1 sequence (Q8NF37 1-534): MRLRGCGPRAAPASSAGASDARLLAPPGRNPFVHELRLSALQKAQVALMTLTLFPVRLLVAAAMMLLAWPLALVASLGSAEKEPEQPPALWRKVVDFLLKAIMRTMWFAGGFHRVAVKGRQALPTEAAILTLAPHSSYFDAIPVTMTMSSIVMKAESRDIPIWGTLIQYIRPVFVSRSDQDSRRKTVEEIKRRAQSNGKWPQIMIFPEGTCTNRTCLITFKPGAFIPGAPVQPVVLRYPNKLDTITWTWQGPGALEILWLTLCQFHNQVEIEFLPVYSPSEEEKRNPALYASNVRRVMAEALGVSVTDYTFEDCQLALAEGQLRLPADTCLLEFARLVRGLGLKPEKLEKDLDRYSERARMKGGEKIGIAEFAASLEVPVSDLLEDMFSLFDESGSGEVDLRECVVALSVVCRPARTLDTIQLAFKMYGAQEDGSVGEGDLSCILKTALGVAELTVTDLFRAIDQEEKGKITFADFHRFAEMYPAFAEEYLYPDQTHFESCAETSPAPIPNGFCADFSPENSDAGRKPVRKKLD
Nature of the experiment: acyltransferase activity assay, DPPC product by LC-MS/MS. Particulars: 0, 0.2, 0.6, 2, 6 and 20 μM of each compound in triplicate; LC-MS/MS; read-out: IC50, product DPPC, enzyme hLPCAT1. The procedure: (§1) Microsomal protein fractions (0.5 μg) supplemented with the indicated compound concentrations were added to the reaction mixture containing 100 mM Tris-HCl (pH 7.4), 1 μM CaCl2, 0.015% Tween-20, and two substrates. For acetyltransferase activity, the substrates were 1 mM acetyl-CoA and 5 μM d4-lyso-PAF; for the acyltransferase activity of LPCAT1 or LPCAT2, the substrates were, respectively, palmitoyl-CoA and d31-16:0 LPC or arachidonoyl-CoA and d4-lyso-PAF (all 5 μM). Each lysophospholipid contained fatty acid at the sn-1 position. After incubation at 37°C for 5 min, the reactions were stopped by adding 300 μl methanol containing 17:0 LPC or 14:0/14:0 PC as an internal standard. Deuterium-labeled products were analyzed by LC-MS/MS (Waters, Milford, MA and Thermo Scientific, Waltham, MA). […]
(§2) Steps 2 to 5 screening: 96-well plate assay
(§3) Acetyltransferase and acyltransferase assays were developed in 96-well plates. The microsomal hLPCAT2, obtained from mcPAF-stimulated CHO-S-PAFR cells was used in steps 1, 2, and 5. The microsomal hLPCAT1 obtained from unstimulated CHO-S cells was used in steps 3 to 5. Each well of the 96-well plates contained 30 µl of 15 µg/ml protein, 600 nl of 2 mM compound, 30 µl buffer C, and two substrates (Fig. 1B and C).
(§4) Substrate concentrations were as follows: acetyl-CoA, 250 or 1000 µM acetyl-CoA; […]
(§5) arachidonoyl-CoA, 5 µM; palmitoyl-CoA, 5 µM; d4-lyso-PAF, 5 µM; and d31-LPC, 5 µM.
(§6) For step 5, compound concentrations were 0, 0.167, 0.67, 2, 6.7, and 20 µM. The deuterium-labeled products were measured by LC-MS/MS. Percentage inhibition (steps 2 to 4) or IC50 (step 5) was used as the hit criterion. […]
(§7) Step 7 screening: species-specific differences
(§8) To evaluate the effects on the activity of mouse or human LPCAT1 and LPCAT2, each microsomal fraction was obtained using CHO-S-PAFR cells with or without mcPAF (200 nM) stimulation for 5 min. Acetyltransferase and acyltransferase assays were performed with 20 µM of each compound. Percentage inhibition was calculated in each

In experiment [2] the target is T2, hLPCAT2 (Homo sapiens, UniProt Q7L5N7).
T2 construct: expressed in transfected cells; host or cells: CHO-S-PAFR cells (microsomal fraction), with or without mcPAF stimulation
T2 sequence (Q7L5N7 1-544): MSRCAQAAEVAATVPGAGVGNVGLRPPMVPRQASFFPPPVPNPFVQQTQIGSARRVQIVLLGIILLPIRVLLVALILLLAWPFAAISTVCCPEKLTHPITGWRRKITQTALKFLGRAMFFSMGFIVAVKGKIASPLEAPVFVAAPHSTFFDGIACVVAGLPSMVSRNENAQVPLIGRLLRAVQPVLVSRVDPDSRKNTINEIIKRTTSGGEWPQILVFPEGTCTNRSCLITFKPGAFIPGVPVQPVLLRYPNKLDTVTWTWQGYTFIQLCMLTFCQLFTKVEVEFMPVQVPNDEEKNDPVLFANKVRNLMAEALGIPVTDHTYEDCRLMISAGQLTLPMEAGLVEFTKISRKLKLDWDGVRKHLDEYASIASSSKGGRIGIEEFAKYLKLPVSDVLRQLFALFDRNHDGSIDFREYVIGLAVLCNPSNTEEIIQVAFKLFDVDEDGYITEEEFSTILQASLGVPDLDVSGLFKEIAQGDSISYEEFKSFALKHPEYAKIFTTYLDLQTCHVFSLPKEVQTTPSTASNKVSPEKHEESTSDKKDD
Nature of the experiment: lyso-PAFAT (acetyltransferase) activity assay, PAF product by LC-MS/MS. Particulars: 0, 0.2, 0.6, 2, 6 and 20 μM of each compound in triplicate; LC-MS/MS; read-out: IC50, product PAF, enzyme hLPCAT2. The procedure: as §1, §2, §3, §4, §5
For step 5, compound concentrations were 0, 0.167, 0.67, 2, 6.7, and 20 µM. The deuterium-labeled products were measured by LC-MS/MS. Percentage inhibition (steps 2 to 4) or IC50 (step 5) was used as the hit criterion.
Step 6 screening: BSA assay
The acetyltransferase assay was performed with 20 µM of each compound and microsomal hLPCAT2 from step 1. The assay mixture contained 0.4% BSA and two substrates for lyso-PAFAT activity: 1 mM acetyl-CoA and 5 µM d4-lyso-PAF. Percentage inhibition values were determined.
as §7, §8

Experiment [3] concerns the target T2, hLPCAT2. Put plainly: acyltransferase activity assay, 16:0/20:4 alkyl-PC product by LC-MS/MS. The following applies: 0, 0.2, 0.6, 2, 6 and 20 μM of each compound in triplicate; LC-MS/MS; read-out: IC50, product Alkyl-PC (16:0/20:4 alkyl-PC), enzyme hLPCAT2. The procedure: as §1, §2, §3, §4, §5, §6, §7, §8
For experiment [4], the target named is T1, hLPCAT1. Nature of the experiment: lyso-PAFAT (acetyltransferase) activity assay, PAF product by LC-MS/MS. Particulars: 0, 0.2, 0.6, 2, 6 and 20 μM of each compound in triplicate; LC-MS/MS; read-out: IC50, product PAF, enzyme hLPCAT1. How it is done:
as §1, §2, §3, §4, §5, §6, §7, §8

On to `CCN1C(=O)C=CC1=O` [N-ethylmaleimide (NEM), N-ethylmaleimide, reference compound], for which the IC50 on hLPCAT1 [1] is 1850 µM; at hLPCAT2 [2] it was 106 µM; on hLPCAT2 [3] it was 69.6 µM; at hLPCAT1 [4], 1720 µM.
The corresponding values for `COC(=O)c1ccc(N2C(=O)C(Cl)=C(Cl)C2=O)cc1` [TSI-09] are more than 20 µM, 3.5 µM, 11.6 µM and 10.1 µM.
The matching figures for `COC(=O)c1ccc(N2C(=O)C(Cl)=C(Nc3ccc(S(N)(=O)=O)cc3)C2=O)cc1` [TSI-08]: more than 20 µM, more than 20 µM, more than 20 µM and more than 20 µM.
The matching figures for `COc1ccc(N2C(=O)C(Cl)=C(Oc3ccccc3OC)C2=O)cc1` [TSI-05]: more than 20 µM, more than 20 µM, 7.58 µM and more than 20 µM.
For `COc1ccc(Cl)cc1N1C(=O)C(Cl)=C(Cl)C1=O` [TSI-03], the IC50 was more than 20 µM on hLPCAT1 [1]; > 10 µM and 12.1 µM at hLPCAT2 [2]; 17.1 µM on hLPCAT2 [3]; 9.38 µM on hLPCAT1 [4].
In the case of `COc1ccc(Cl)cc1N1C(=O)C(Cl)=C(Nc2ccccc2O)C1=O` [TSI-04], the IC50 at hLPCAT1 [1] is more than 20 µM; on hLPCAT2 [2], > 10 µM and 16.3 µM; at hLPCAT2 [3], more than 20 µM; at hLPCAT1 [4], 7.79 µM.
As for `CC(C)OC(=O)c1ccc(N2C(=O)C(Cl)=C(N3CCOCC3)C2=O)cc1` [TSI-06], the IC50 on hLPCAT1 [1], on hLPCAT2 [2], at hLPCAT2 [3] and on hLPCAT1 [4] was more than 20 µM in each case.
